Measured values as given in patent US20250366475A1, “HERBICIDAL COMBINATIONS AND A METHOD FOR CONTROLLING UNDESIRED VEGETATION” (UPL Mauritius Limited, priority 2022, published 2025).

Test system: Brachiaria decumbens
Experiment: Post-emergence herbicidal activity, efficacy on Brachiaria decumbens (Colby method for expected efficacy)
Assay type: in vivo
Experimental: Methodology: Trials were conducted to evaluate the efficacy of the combinations comprising L-glufosinate ammonium and the additional herbicides on Brachiaria genus weeds.
All treatments were in 4 replications per treatment with a spray volume of about 150 L/ha.
Efficacy Evaluation: The expected efficacy of a combination comprising L-glufosinate ammonium and additional herbicides was calculated using the well-established Colby method.
In the Colby method, the expected (or predicted) response of a combination of herbicides is calculated by taking the product of the observed response for each individual component of the combination when applied alone, divided by 100, and subtracting this value from the sum of the observed response for each component when applied alone. An unexpected enhancement in efficacy of the combination is then determined by comparing the observed response of the combination to the expected (or predicted) response as calculated from the observed response of each individual component alone. […] The Colby method requires only a single dose of each herbicide applied alone and the mixture of both doses. The formula used to calculate the expected efficacy (EE) which was compared with the observed efficacy (OE) to determine the efficacy of the present disclosure is explained hereinbelow:
The expected efficacy for a combination of two active ingredients is as follows:
[formula] • wherein, • A=Observed efficacy of active ingredient A at the same concentration as used in the mixture. • B=Observed efficacy of the active ingredient B at the same concentration as used in the mixture.

Compound: Cc1ccc2c(c1)[C@H](Nc1nc(N)nc(C(C)F)n1)[C@@H](C)C2 (some centres unmarked) [Indaziflam]
- Observed efficacy (%) (50 g a.i./ha, 7 DAA, Table 8): 50%
- Observed efficacy (%) (50 g a.i./ha, 14 DAA, Table 8): 75%
- Observed efficacy (%) (50 g a.i./ha, 21 DAA, Table 8): 90%

Compound: CS(=O)(=O)c1cc(C(F)(F)F)ccc1C(=O)c1cnoc1C1CC1 [Isoxaflutole]
- Observed efficacy (%) (60 g a.i./ha, 7 DAA, Table 9): 45%
- Observed efficacy (%) (60 g a.i./ha, 14 DAA, Table 9): 70%
- Observed efficacy (%) (60 g a.i./ha, 21 DAA, Table 9): 85%
- Observed efficacy (%) (60 g a.i./ha, 28 DAA, Table 9): 75%

Compound: CP(=O)(O)CC[C@H](N)C(=O)O.N [L-glufosinate ammonium]
- Observed efficacy (%) (150 g a.i./ha, 3 DAA, Table 13): 40%
- Observed efficacy (%) (150 g a.i./ha, 3 DAA, Table 16): 40%
- Observed efficacy (%) (150 g a.i./ha, 7 DAA, Table 7): 65%
- Observed efficacy (%) (150 g a.i./ha, 7 DAA, Table 8): 75%
- Observed efficacy (%) (150 g a.i./ha, 7 DAA, Table 9): 70%
- Observed efficacy (%) (150 g a.i./ha, 7 DAA, Table 10): 65%
- Observed efficacy (%) (150 g a.i./ha, 7 DAA, Table 11): 75%
- Observed efficacy (%) (150 g a.i./ha, 7 DAA, Table 12): 65%
- Observed efficacy (%) (150 g a.i./ha, 14 DAA, Table 7): 70%
- Observed efficacy (%) (150 g a.i./ha, 14 DAA, Table 8): 65%
- Observed efficacy (%) (150 g a.i./ha, 14 DAA, Table 9): 65%
- Observed efficacy (%) (150 g a.i./ha, 14 DAA, Table 10): 70%
- Observed efficacy (%) (150 g a.i./ha, 14 DAA, Table 11): 85%
- Observed efficacy (%) (150 g a.i./ha, 14 DAA, Table 12): 70%
- Observed efficacy (%) (150 g a.i./ha, 14 DAA, Table 15): 75%
- Observed efficacy (%) (150 g a.i./ha, 21 DAA, Table 7): 70%
- Observed efficacy (%) (150 g a.i./ha, 21 DAA, Table 8): 60%
- Observed efficacy (%) (150 g a.i./ha, 21 DAA, Table 9): 60%
- Observed efficacy (%) (150 g a.i./ha, 21 DAA, Table 10): 70%
- Observed efficacy (%) (150 g a.i./ha, 21 DAA, Table 11): 85%
- Observed efficacy (%) (150 g a.i./ha, 21 DAA, Table 12): 70%
- Observed efficacy (%) (150 g a.i./ha, 21 DAA, Table 15): 70%
- Observed efficacy (%) (150 g a.i./ha, 28 DAA, Table 7): 60%
- Observed efficacy (%) (150 g a.i./ha, 28 DAA, Table 9): 60%
- Observed efficacy (%) (150 g a.i./ha, 28 DAA, Table 10): 60%
- Observed efficacy (%) (150 g a.i./ha, 28 DAA, Table 11): 85%
- Observed efficacy (%) (150 g a.i./ha, 28 DAA, Table 12): 60%
- Observed efficacy (%) (150 g a.i./ha, 28 DAA, Table 14): 60%
- Observed efficacy (%) (150 g a.i./ha, 28 DAA, Table 15): 60%
- Observed efficacy (%) (150 g a.i./ha, 35 DAA, Table 14): 55%
- Observed efficacy (%) (150 g a.i./ha, 35 DAA, Table 15): 55%

Compound: CCc1cccc(C)c1N(COC(C)C)C(=O)CCl [Propisochlor]
- Observed efficacy (%) (540 g a.i./ha, 7 DAA, Table 12): 0%
- Observed efficacy (%) (540 g a.i./ha, 14 DAA, Table 12): 0%
- Observed efficacy (%) (540 g a.i./ha, 21 DAA, Table 12): 0%
- Observed efficacy (%) (540 g a.i./ha, 28 DAA, Table 12): 0%

Compound: Cn1nc(C(F)(F)F)c(CS(=O)(=O)C2=NOC(C)(C)C2)c1OC(F)F [Pyroxasulfone]
- Observed efficacy (%) (75 g a.i./ha, 7 DAA, Table 10): 0%
- Observed efficacy (%) (75 g a.i./ha, 14 DAA, Table 10): 15%
- Observed efficacy (%) (75 g a.i./ha, 21 DAA, Table 10): 25%
- Observed efficacy (%) (75 g a.i./ha, 28 DAA, Table 10): 20%

Compound: CCc1cccc(C)c1N(C(=O)CCl)[C@@H](C)COC [S-metolachlor]
- Observed efficacy (%) (960 g a.i./ha, 7 DAA, Table 7): 0%
- Observed efficacy (%) (960 g a.i./ha, 14 DAA, Table 7): 0%
- Observed efficacy (%) (960 g a.i./ha, 21 DAA, Table 7): 0%
- Observed efficacy (%) (960 g a.i./ha, 28 DAA, Table 7): 0%

Compound: CS(=O)(=O)c1ccc(C(=O)C2C(=O)CCCC2=O)c([N+](=O)[O-])c1 [mesotrione, Mesotrione]
- Observed efficacy (%) (100 g a.i./ha, 3 DAA, Table 16): 10%

Compound: CCN(CC)C(=O)C(C)Oc1cccc2ccccc12 (centres unmarked) [napropamide, Napropamide]
- Observed efficacy (%) (675 g a.i./ha, 7 DAA, Table 11): 5%
- Observed efficacy (%) (675 g a.i./ha, 14 DAA, Table 11): 5%
- Observed efficacy (%) (675 g a.i./ha, 21 DAA, Table 11): 5%
- Observed efficacy (%) (675 g a.i./ha, 28 DAA, Table 11): 0%

Compound: CCOC(=O)C(C)Oc1ccc(Oc2cnc3cc(Cl)ccc3n2)cc1 (centres unmarked) [quizalofop-ethyl, Quizalofop-ethyl]
- Observed efficacy (%) (25 g a.i./ha, 28 DAA, Table 14): 35%
- Observed efficacy (%) (25 g a.i./ha, 35 DAA, Table 14): 30%

Compound: C[C@@H](Oc1ccc(Oc2cnc3cc(Cl)ccc3n2)cc1)C(=O)OCC1CCCO1 (some centres unmarked) [quizalofop-p-tefuryl, Quizalofop-p-tefuryl]
- Observed efficacy (%) (25 g a.i./ha, 14 DAA, Table 15): 20%
- Observed efficacy (%) (25 g a.i./ha, 21 DAA, Table 15): 10%
- Observed efficacy (%) (25 g a.i./ha, 28 DAA, Table 15): 5%
- Observed efficacy (%) (25 g a.i./ha, 35 DAA, Table 15): 5%

Compound: CS(=O)(=O)c1ccc(C(=O)C2C(=O)CCCC2=O)c(Cl)c1COCC(F)(F)F [tembotrione, Tembotrione]
- Observed efficacy (%) (53 g a.i./ha, 3 DAA, Table 13): 8%
